Here are results for seven compounds from PubChem BioAssay AID1745844 (Carcinogenic Potency Database (CPDB), 2022).

This data set concerns rodent lifetime carcinogenesis bioassay, tumor incidence TD50. Briefly: chronic cancer bioassays in animals – CPDB, compiled studies (AID 1745844).

Calls of active or inactive are those of the source. No rule for the calls is given here.

In the case of `CC(C)O`, the carcinogen call was “negative (inactive)” (mouse, strain Charles River CD1, females, inhaled, site: kidney, lesion: one or several types, types not named, dosed 54 weeks, study length 54 weeks); “negative (inactive)” (mouse, strain Charles River CD1, females, inhaled, site: kidney, lesion: one or several types, types not named, dosed 78 weeks, study length 78 weeks); “negative (inactive)” (mouse, strain Charles River CD1, males, inhaled, site: kidney, lesion: one or several types, types not named, dosed 54 weeks, study length 54 weeks); “negative (inactive)” (mouse, strain Charles River CD1, males, inhaled, site: kidney, lesion: one or several types, types not named, dosed 78 weeks, study length 78 weeks); “negative (inactive)” (rat, strain Fischer 344, females, inhaled, site: kidney, lesion: one or several types, types not named, dosed 72 weeks, study length 73 weeks); “negative (inactive)” (rat, strain Fischer 344, females, inhaled, site: kidney, lesion: one or several types, types not named, dosed 104 weeks, study length 104 weeks). For the same compound, the carcinogen call (rat, strain Fischer 344, males, inhaled, site: kidney, lesion: one or several types, types not named, dosed 72 weeks, study length 73 weeks) is “negative (inactive)” and the carcinogen call (rat, strain Fischer 344, males, inhaled, site: kidney, lesion: one or several types, types not named, dosed 102 weeks, study length 104 weeks) is “negative (inactive)”. The TD50 reads like this: (rat, strain Fischer 344, males, inhaled, site: testis, lesion: interstitial-cell adenoma, dosed 72 weeks, study length 73 weeks) 456 mg/kg/day (inactive); (rat, strain Fischer 344, males, inhaled, site: testis, lesion: interstitial-cell adenoma, dosed 102 weeks, study length 104 weeks) 46.4 mg/kg/day (inactive).
For `COc1cc(OC)c2c3c(c(=O)oc2c1)CCC3=O`, the carcinogen call (rat, strain Fischer, males, by gavage, site: liver, lesion: one or several types, types not named, dosed 52 weeks, study length 74 weeks) was “negative (inactive)”.
Take `[S-]c1nc2ccccc2s1.[S-]c1nc2ccccc2s1.[Zn+2]`: the carcinogen call reads like this: (mouse, strain B6AKF1, females, oral dosing, site: any site (literature study), lesion: several types, types named in the paper, dosed 76 weeks, study length 76 weeks) “negative (inactive)”; (mouse, strain B6AKF1, females, oral dosing, site: liver, lesion: hepatoma, dosed 76 weeks, study length 76 weeks) “negative (inactive)”; (mouse, strain B6AKF1, females, oral dosing, site: lung, lesion: adenoma, dosed 76 weeks, study length 76 weeks) “negative (inactive)”; (mouse, strain B6AKF1, males, oral dosing, site: any site (literature study), lesion: several types, types named in the paper, dosed 76 weeks, study length 76 weeks) “negative (inactive)”; (mouse, strain B6AKF1, males, oral dosing, site: liver, lesion: hepatoma, dosed 76 weeks, study length 76 weeks) “negative (inactive)”; (mouse, strain B6AKF1, males, oral dosing, site: lung, lesion: adenoma, dosed 76 weeks, study length 76 weeks) “negative (inactive)”. Besides, the carcinogen call was “negative (inactive)” (mouse, strain B6C3F1, females, oral dosing, site: liver, lesion: hepatoma, dosed 76 weeks, study length 76 weeks) and “negative (inactive)” (mouse, strain B6C3F1, females, oral dosing, site: lung, lesion: several types, types named in the paper, dosed 76 weeks, study length 76 weeks). Moreover, the TD50 reads like this: (mouse, strain B6C3F1, females, oral dosing, site: any site (literature study), lesion: several types, types named in the paper, dosed 76 weeks, study length 76 weeks) 2790 mg/kg/day (inactive); (mouse, strain B6C3F1, males, oral dosing, site: any site (literature study), lesion: several types, types named in the paper, dosed 76 weeks, study length 76 weeks) 319 mg/kg/day (inactive); (mouse, strain B6C3F1, males, oral dosing, site: liver, lesion: hepatoma, dosed 76 weeks, study length 76 weeks) 388 mg/kg/day (inactive); (mouse, strain B6C3F1, males, oral dosing, site: lung, lesion: adenoma, dosed 76 weeks, study length 76 weeks) 2750 mg/kg/day (inactive).
As to `O=NN1CN2CN(C1)CN(N=O)C2`, the carcinogen call (rat, strain CB, males, i.p., site: liver, lesion: hepatoma, dosed 26 weeks, study length 100 weeks) was “negative (inactive)”.
With `OCc1ccccc1`, the TD50 is, setting by setting: (mouse, strain B6C3F1, females, by gavage, site: any site (literature study), lesion: several types, types named in the paper, dosed 103 weeks, study length 104 weeks) 57500 mg/kg/day (inactive); (mouse, strain B6C3F1, females, by gavage, site: liver, lesion: hepatocellular adenoma + hepatocellular carcinoma + neoplastic nodule, dosed 103 weeks, study length 104 weeks) 1040 mg/kg/day; (mouse, strain B6C3F1, males, by gavage, site: adrenal gland, lesion: cortical adenoma, dosed 103 weeks, study length 104 weeks) 1620 mg/kg/day (inactive); (mouse, strain B6C3F1, males, by gavage, site: liver, lesion: hepatocellular adenoma + hepatocellular carcinoma + neoplastic nodule, dosed 103 weeks, study length 104 weeks) 588 mg/kg/day; (mouse, strain B6C3F1, males, by gavage, site: lung, lesion: alveolar/bronchiolar adenoma + alveolar/bronchiolar carcinoma, dosed 103 weeks, study length 104 weeks) 546 mg/kg/day; (rat, strain Fischer 344, females, by gavage, site: any site (literature study), lesion: several types, types named in the paper, dosed 103 weeks, study length 104 weeks) 885 mg/kg/day (inactive). The TD50 is 1140 mg/kg/day (inactive) (rat, strain Fischer 344, males, by gavage, site: mammary gland, lesion: adenoma, NOS + fibroadenoma, dosed 103 weeks, study length 104 weeks) and 1380 mg/kg/day (rat, strain Fischer 344, males, by gavage, site: mammary gland, lesion: fibroadenoma, dosed 103 weeks, study length 104 weeks).
As for `NC(=O)NNc1ccccc1`, the TD50 was 2670 mg/kg/day (inactive) (mouse, strain Swiss albino, females, in drinking water, site: liver, lesion: angioma, dosed 79 weeks, study length 79 weeks); 1980 mg/kg/day (inactive) (mouse, strain Swiss albino, females, in drinking water, site: liver, lesion: angiosarcoma, dosed 79 weeks, study length 79 weeks); 1250 mg/kg/day (mouse, strain Swiss albino, females, in drinking water, site: lung, lesion: adenocarcinoma, dosed 79 weeks, study length 79 weeks); 150 mg/kg/day (mouse, strain Swiss albino, females, in drinking water, site: lung, lesion: adenoma, dosed 79 weeks, study length 79 weeks); 155 mg/kg/day (mouse, strain Swiss albino, females, in drinking water, site: lung, lesion: several types, types named in the paper, dosed 79 weeks, study length 79 weeks); 2000 mg/kg/day (inactive) (mouse, strain Swiss albino, males, in drinking water, site: liver, lesion: angiosarcoma, dosed 79 weeks, study length 79 weeks). In addition, the TD50 was 1790 mg/kg/day (mouse, strain Swiss albino, males, in drinking water, site: liver, lesion: several types, types named in the paper, dosed 79 weeks, study length 79 weeks); 158 mg/kg/day (mouse, strain Swiss albino, males, in drinking water, site: lung, lesion: adenoma, dosed 79 weeks, study length 79 weeks); 176 mg/kg/day (mouse, strain Swiss albino, males, in drinking water, site: lung, lesion: several types, types named in the paper, dosed 79 weeks, study length 79 weeks).
Take `COc1ccc(CCN2CCC(Nc3nc4ccccc4n3Cc3ccc(F)cc3)CC2)cc1`: the TD50 reads like this: (mouse, strain Swiss, females, in feed, site: any site (literature study), lesion: several types, types named in the paper, dosed 78 weeks, study length 78 weeks) 164 mg/kg/day (inactive); (mouse, strain Swiss, males, in feed, site: liver, lesion: hepatocellular adenoma, dosed 78 weeks, study length 78 weeks) 8770 mg/kg/day (inactive); (mouse, strain Swiss, males, in feed, site: liver, lesion: hepatocellular carcinoma, dosed 78 weeks, study length 78 weeks) 788 mg/kg/day (inactive); (rat, strain Charles River Crl:COBS(WI)BR, females, in feed, site: liver, lesion: neoplastic nodule, dosed 105 weeks, study length 105 weeks) 309 mg/kg/day (inactive); (rat, strain Charles River Crl:COBS(WI)BR, males, in feed, site: any site (literature study), lesion: several types, types named in the paper, dosed 105 weeks, study length 105 weeks) 32.5 mg/kg/day (inactive). Further, the carcinogen call is “negative (inactive)” (mouse, strain Swiss, females, in feed, site: liver, lesion: hepatocellular adenoma, dosed 78 weeks, study length 78 weeks); “negative (inactive)” (mouse, strain Swiss, females, in feed, site: lung, lesion: one or several types, types not named, dosed 78 weeks, study length 78 weeks); “negative (inactive)” (mouse, strain Swiss, males, in feed, site: any site (literature study), lesion: several types, types named in the paper, dosed 78 weeks, study length 78 weeks); “negative (inactive)” (mouse, strain Swiss, males, in feed, site: lung, lesion: one or several types, types not named, dosed 78 weeks, study length 78 weeks); “negative (inactive)” (rat, strain Charles River Crl:COBS(WI)BR, females, in feed, site: any site (literature study), lesion: several types, types named in the paper, dosed 105 weeks, study length 105 weeks); “negative (inactive)” (rat, strain Charles River Crl:COBS(WI)BR, males, in feed, site: liver, lesion: neoplastic nodule, dosed 105 weeks, study length 105 weeks).
